Measured values from PubChem BioAssay AID256 (DTP/NCI, 2004).
Where “and” joins values, the source holds several entries; their conditions need not be identical. Equal values may be shown once. Toxic doses and inconclusive results are not listed.

Test system: CD2F1 mice, L1210 leukemia ip, survival T/C
Assay: NCI In Vivo Anticancer Drug Screen. Data for tumor model L1210 Leukemia (intraperitoneal) in CD2F1 (CDF1) mice
Conditions: higher = longer survival
In short: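 Activity against a transplanted murine tumor was judged by comparing the compound group with a vehicle group. The outcome in the treated animals was divided by that in the controls.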

[1] = endpoint: mean survival time, dose: 50.0 mg/kg/injection, schedule: Q01DX009 (ip), vehicle: saline
[2] = endpoint: mean survival time, dose: 100.0 mg/kg/injection, schedule: Q04DX003 (ip), vehicle: saline with Tween-80
[3] = endpoint: mean survival time, dose: 200.0 mg/kg/injection, schedule: Q04DX003 (ip), vehicle: saline with Tween-80
[4] = endpoint: mean survival time, dose: 100.0 mg/kg/injection, schedule: Q04DX002 (ip), vehicle: saline with Tween-80
[5] = endpoint: mean survival time, dose: 200.0 mg/kg/injection, schedule: Q04DX002 (ip), vehicle: saline with Tween-80
[6] = endpoint: mean survival time, dose: 400.0 mg/kg/injection, schedule: Q04DX002 (ip), vehicle: saline with Tween-80
[7] = endpoint: mean survival time, dose: 12.5 mg/kg/injection, schedule: Q01DX005 (ip), vehicle: water
[8] = endpoint: mean survival time, dose: 25.0 mg/kg/injection, schedule: Q01DX005 (ip), vehicle: water
[9] = endpoint: mean survival time, dose: 50.0 mg/kg/injection, schedule: Q01DX005 (ip), vehicle: water
[10] = endpoint: mean survival time, dose: 100.0 mg/kg/injection, schedule: Q01DX005 (ip), vehicle: water
[11] = endpoint: mean survival time, dose: 100.0 mg/kg/injection, schedule: Q01DX009 (ip), vehicle: saline with Tween-80
[12] = endpoint: mean survival time, dose: 200.0 mg/kg/injection, schedule: Q01DX009 (ip), vehicle: saline with Tween-80
[13] = endpoint: mean survival time, dose: 400.0 mg/kg/injection, schedule: Q01DX009 (ip), vehicle: saline with Tween-80

CC1(C(F)(F)F)CC(=O)NN1 (stereo not drawn)
T/C (endpoint: mean survival time, dose: 12.5 mg/kg/injection, schedule: Q01DX009 (ip), vehicle: saline): 95 % of control | T/C (endpoint: mean survival time, dose: 25.0 mg/kg/injection, schedule: Q01DX009 (ip), vehicle: saline): 97 % of control | T/C [1]: 97 % of control | T/C [2]: 97 % of control

Cc1cn([C@@H]2C[C@H](CO)[C@@H](O)C2)c(=O)[nH]c1=O
T/C (endpoint: mean survival time, dose: 133.0 mg/kg/injection, schedule: Q01DX009 (ip), vehicle: saline): 118 % of control | T/C (endpoint: mean survival time, dose: 200.0 mg/kg/injection, schedule: Q01DX009 (ip), vehicle: saline): 121 % of control | T/C (endpoint: mean survival time, dose: 450.0 mg/kg/injection, schedule: Q01DX009 (ip), vehicle: saline): 106 % of control

COc1ccc(NC(=O)Nc2c(Oc3ccc(Cl)cc3)ccc(Cl)c2S(=O)(=O)O)cc1Cl
T/C [1]: 98 % of control | T/C (endpoint: mean survival time, dose: 100.0 mg/kg/injection, schedule: Q01DX009 (ip), vehicle: saline): 87 % of control | T/C [2]: 93 % of control | T/C [3]: 91 % of control

O=C(O)c1cc([N+](=O)[O-])cc([N+](=O)[O-])c1 (tested in a mixture with another compound)
T/C [4]: 105 % of control and 114 % of control | T/C [5]: 101 % of control and 105 % of control | T/C [6]: 94 % of control

O=C(O)CC1CCCCCCCCCCC1=O (stereo not drawn)
T/C [4]: 98 % of control | T/C [5]: 91 % of control | T/C [6]: 98 % of control

O=[N+]([O-])O.[Ga]
T/C (endpoint: mean survival time, dose: 50.0 mg/kg/injection, schedule: Q01DX Z (ip), vehicle: saline): 119 % of control

O=c1[nH]c2c(c(=O)n1-c1ccccc1)CCCS2
T/C (endpoint: mean survival time, dose: 100.0 mg/kg/injection, schedule: Q01DX001 (ip), vehicle: saline): 103 % of control | T/C (endpoint: mean survival time, dose: 200.0 mg/kg/injection, schedule: Q01DX001 (ip), vehicle: saline): 104 % of control | T/C (endpoint: mean survival time, dose: 400.0 mg/kg/injection, schedule: Q01DX001 (ip), vehicle: saline): 103 % of control

CC(=O)N(c1nc(Cl)c2cc[nH]c2n1)C1OC(CO)C(O)C1O (stereo not drawn)
T/C [7]: 100 % of control | T/C [8]: 100 % of control | T/C [9]: 101 % of control | T/C [10]: 101 % of control | T/C (endpoint: mean survival time, dose: 200.0 mg/kg/injection, schedule: Q01DX005 (ip), vehicle: water): 103 % of control

CCOC(=O)c1cnc(SC)nc1NC(C)c1ccccc1 (stereo not drawn)
T/C (endpoint: mean survival time, dose: 100.0 mg/kg/injection, schedule: Q01DX001 (ip), vehicle: saline with Tween-80): 94 % of control | T/C [11]: 97 % of control | T/C (endpoint: mean survival time, dose: 200.0 mg/kg/injection, schedule: Q01DX001 (ip), vehicle: saline with Tween-80): 88 % of control | T/C [12]: 89 % of control | T/C (endpoint: mean survival time, dose: 400.0 mg/kg/injection, schedule: Q01DX001 (ip), vehicle: saline with Tween-80): 89 % of control | T/C [13]: 94 % of control

S=P(c1ccccc1)(N1CC1)N1CC1
T/C (endpoint: mean survival time, dose: 6.25 mg/kg/injection, schedule: Q01DX009 (ip), vehicle: Klucel (hydroxypropylcellulose) (HPC)): 102 % of control | T/C (endpoint: mean survival time, dose: 6.25 mg/kg/injection, schedule: Q01DX009 (ip), vehicle: other): 95 % of control | T/C (endpoint: mean survival time, dose: 12.5 mg/kg/injection, schedule: Q01DX009 (ip), vehicle: Klucel (hydroxypropylcellulose) (HPC)): 102 % of control | T/C (endpoint: mean survival time, dose: 12.5 mg/kg/injection, schedule: Q01DX009 (ip), vehicle: other): 118 % of control and 104 % of control | T/C (endpoint: mean survival time, dose: 22.0 mg/kg/injection, schedule: Q01DX009 (ip), vehicle: other): 115 % of control | T/C (endpoint: mean survival time, dose: 25.0 mg/kg/injection, schedule: Q01DX009 (ip), vehicle: Klucel (hydroxypropylcellulose) (HPC)): 104 % of control | T/C (endpoint: mean survival time, dose: 25.0 mg/kg/injection, schedule: Q01DX009 (ip), vehicle: other): 106 % of control | T/C (endpoint: mean survival time, dose: 25.0 mg/kg/injection, schedule: Q04DX002 (ip), vehicle: saline with Tween-80): 96 % of control | T/C (endpoint: mean survival time, dose: 44.0 mg/kg/injection, schedule: Q04DX002 (ip), vehicle: other): 97 % of control | T/C (endpoint: mean survival time, dose: 44.0 mg/kg/injection, schedule: Q04DX003 (ip), vehicle: other): 106 % of control | T/C (endpoint: mean survival time, dose: 50.0 mg/kg/injection, schedule: Q01DX009 (ip), vehicle: Klucel (hydroxypropylcellulose) (HPC)): 118 % of control | T/C (endpoint: mean survival time, dose: 50.0 mg/kg/injection, schedule: Q01DX009 (ip), vehicle: other): 123 % of control | T/C (endpoint: mean survival time, dose: 50.0 mg/kg/injection, schedule: Q04DX002 (ip), vehicle: saline with Tween-80): 103 % of control and 106 % of control | T/C (endpoint: mean survival time, dose: 66.0 mg/kg/injection, schedule: Q04DX002 (ip), vehicle: other): 109 % of control | T/C (endpoint: mean survival time, dose: 66.0 mg/kg/injection, schedule: Q04DX003 (ip), vehicle: other): 118 % of control | T/C (endpoint: mean survival time, dose: 75.0 mg/kg/injection, schedule: Q01DX009 (ip), vehicle: other): 101 % of control | T/C (endpoint: mean survival time, dose: 100.0 mg/kg/injection, schedule: Q04DX002 (ip), vehicle: other): 115 % of control | T/C [4]: 117 % of control | T/C (endpoint: mean survival time, dose: 100.0 mg/kg/injection, schedule: Q04DX003 (ip), vehicle: other): 108 % of control | T/C (endpoint: mean survival time, dose: 118.0 mg/kg/injection, schedule: Q01DX001 (ip), vehicle: other): 100 % of control | T/C (endpoint: mean survival time, dose: 150.0 mg/kg/injection, schedule: Q04DX002 (ip), vehicle: other): 103 % of control | T/C (endpoint: mean survival time, dose: 178.0 mg/kg/injection, schedule: Q01DX001 (ip), vehicle: other): 97 % of control | T/C (endpoint: mean survival time, dose: 266.0 mg/kg/injection, schedule: Q01DX001 (ip), vehicle: other): 109 % of control | T/C (endpoint: mean survival time, dose: 400.0 mg/kg/injection, schedule: Q01DX001 (ip), vehicle: other): 100 % of control

COC1=C(C)C(=O)C2=C(C1=O)C(COC(N)=O)C(=O)C1NC1CN2C (stereo not drawn)
T/C (endpoint: mean survival time, dose: 4.7 mg/kg/injection, schedule: Q01DX001 (ip), vehicle: carboxymethylcellulose (CMC)): 110 % of control

NC(=O)N/N=C1/CC2CC1C1C=CCC21 (stereo not drawn)
T/C [4]: 102 % of control | T/C [5]: 107 % of control | T/C [6]: 98 % of control

C[N+](C)(C)C.N=C=O.N=C=O.N=C=O.N=C=O.[Co+2]
T/C (endpoint: mean survival time, dose: 10.0 mg/kg/injection, schedule: Q01DX009 (ip), vehicle: saline): 98 % of control

N#CCc1[nH]nc2ncnc(N)c12
T/C [7]: 100 % of control | T/C [8]: 100 % of control | T/C [9]: 105 % of control | T/C [10]: 105 % of control

O=S1(=O)CC(Cl)C(Cl)C1 (stereo not drawn)
T/C (endpoint: mean survival time, dose: 50.0 mg/kg/injection, schedule: Q04DX003 (ip), vehicle: alcohol): 105 % of control

CC(C)C(=O)C(C)(C)C(=O)N1CCCCC1
T/C [11]: 96 % of control | T/C [12]: 103 % of control | T/C [13]: 94 % of control

CN(C)CCC(=O)C(c1ccccc1)c1ccccc1
T/C (endpoint: mean survival time, dose: 75.0 mg/kg/injection, schedule: Q01DX001 (ip), vehicle: saline): 97 % of control | T/C (endpoint: mean survival time, dose: 150.0 mg/kg/injection, schedule: Q01DX001 (ip), vehicle: saline): 101 % of control

COc1ccc2c(c1)CCn1c(C)c(COC(=O)NC(C)C)c(COC(=O)NC(C)C)c1-2
T/C (endpoint: median survival time, dose: 3.12 mg/kg/injection, schedule: Q01DX009 (ip), vehicle: distilled water + Tween-80): 120 % of control | T/C (endpoint: median survival time, dose: 3.13 mg/kg/injection, schedule: Q01DX009 (ip), vehicle: distilled water + Tween-80): 123 % of control | T/C (endpoint: median survival time, dose: 6.25 mg/kg/injection, schedule: Q01DX009 (ip), vehicle: distilled water + Tween-80): 114 % of control | T/C (endpoint: median survival time, dose: 25.0 mg/kg/injection, schedule: Q01DX009 (ip), vehicle: distilled water + Tween-80): 152 % of control and 157 % of control | T/C (endpoint: median survival time, dose: 50.0 mg/kg/injection, schedule: Q01DX009 (ip), vehicle: distilled water + Tween-80): 114 % of control

CCC(O)C(C)[N+](=O)[O-] (stereo not drawn)
T/C (endpoint: mean survival time, dose: 50.0 mg/kg/injection, schedule: Q01DX009 (ip), vehicle: saline with Tween-80): 95 % of control | T/C [11]: 102 % of control | T/C [12]: 95 % of control

COc1ccc([Si](F)(c2ccc(OC)cc2)c2ccc(OC)cc2)cc1
T/C [11]: 100 % of control | T/C [2]: 95 % of control | T/C [12]: 94 % of control | T/C [3]: 93 % of control | T/C [13]: 93 % of control | T/C (endpoint: mean survival time, dose: 400.0 mg/kg/injection, schedule: Q04DX003 (ip), vehicle: saline with Tween-80): 90 % of control

COc1ccccc1N1C(=O)C=CC1=O
T/C (endpoint: mean survival time, dose: 5.0 mg/kg/injection, schedule: Q04DX003 (ip), vehicle: saline with Tween-80): 98 % of control | T/C (endpoint: mean survival time, dose: 10.0 mg/kg/injection, schedule: Q04DX003 (ip), vehicle: saline with Tween-80): 100 % of control | T/C (endpoint: mean survival time, dose: 20.0 mg/kg/injection, schedule: Q04DX003 (ip), vehicle: saline with Tween-80): 95 % of control

CCCC(=O)Nc1ncnc2c1nc(NC(=O)CCC)n2C1OC2COP(=O)(O)OC2C1OC(=O)CCC (stereo not drawn)
T/C (endpoint: mean survival time, dose: 6.25 mg/kg/injection, schedule: Q01DX005 (ip), vehicle: water): 97 % of control | T/C [7]: 104 % of control | T/C [8]: 93 % of control | T/C [9]: 97 % of control | T/C [10]: 93 % of control
